From ChEMBL document CHEMBL2413072, “Synthesis and in vitro anticancer studies of novel C-2 arylidene congeners of lantadenes” (2013)
Calls of active or inactive are those of the source. The calls are words filed in the database; no cut-off is given here.

Tests used:
Format in all cases: functional
CCRF-CEM [1] = assay: Growth inhibition of human CCRF-CEM cells assessed as growth inhibition at 10 uM by sulforhodamine B assay; details: read-out: GI
ACHN = assay: Growth inhibition of human ACHN cells assessed as cell growth at 10^-7 M by sulforhodamine B assay; details: read-out: Activity
HOP-92 [2] = assay: Growth inhibition of human HOP92 cells assessed as growth inhibition at 10 uM by sulforhodamine B assay; details: read-out: GI
SNB-19 = assay: Growth inhibition of human SNB19 cells assessed as cell growth at 10 uM by sulforhodamine B assay; details: read-out: Activity
DU-145 [3] = assay: Growth inhibition of human DU145 cells assessed as cell growth at 10^-6 M by sulforhodamine B assay; details: read-out: Activity
SW-620 = assay: Growth inhibition of human SW620 cells assessed as growth inhibition at 10 uM by sulforhodamine B assay; details: read-out: GI
U-251 = assay: Growth inhibition of human U251 cells assessed as cell growth at 10^-6 M by sulforhodamine B assay; details: read-out: Activity
UO-31 = assay: Growth inhibition of human UO31 cells assessed as cell growth at 10^-8 M by sulforhodamine B assay; details: read-out: Activity
SK-MEL-2 [4] = assay: Growth inhibition of human SK-MEL-2 cells by sulforhodamine B assay
TK-10 [5] = assay: Growth inhibition of human TK10 cells assessed as cell growth at 10^-4 M by sulforhodamine B assay; details: read-out: Activity
SF-539 [6] = assay: Growth inhibition of human SF539 cells assessed as cell growth at 10^-4 M by sulforhodamine B assay; details: read-out: Activity
IGROV-1 = assay: Growth inhibition of human IGROV1 cells assessed as growth inhibition at 10 uM by sulforhodamine B assay; details: read-out: GI
A498 = assay: Growth inhibition of human A498 cells assessed as growth inhibition at 10 uM by sulforhodamine B assay; details: read-out: GI
OVCAR-5 = assay: Growth inhibition of human OVCAR5 cells assessed as cell growth at 10 uM by sulforhodamine B assay; details: read-out: Activity
NCI-H23 [7] = assay: Growth inhibition of human NCI-H23 cells assessed as cell growth at 10^-4 M by sulforhodamine B assay; details: read-out: Activity
HT-29 = assay: Growth inhibition of human HT-29 cells assessed as growth inhibition at 10 uM by sulforhodamine B assay; details: read-out: GI
SK-OV-3 = assay: Growth inhibition of human SKOV3 cells assessed as growth inhibition at 10 uM by sulforhodamine B assay; details: read-out: GI
RXF 393 [8] = assay: Growth inhibition of human RXF393 cells assessed as growth inhibition at 10 uM by sulforhodamine B assay; details: read-out: GI
CAKI-1 [9] = assay: Growth inhibition of human CAKI-1 cells assessed as cell growth at 10 uM by sulforhodamine B assay; details: read-out: Activity
KM12 = assay: Growth inhibition of human KM12 cells assessed as cell growth at 10^-4 M by sulforhodamine B assay; details: read-out: Activity
SK-MEL-5 = assay: Growth inhibition of human SK-MEL-5 cells assessed as cell growth at 10^-4 M by sulforhodamine B assay; details: read-out: Activity
RPMI-8226 = assay: Growth inhibition of human RPMI8226 cells by sulforhodamine B assay
SK-MEL-2 [10] = assay: Growth inhibition of human SK-MEL-2 cells assessed as cell growth at 10 uM by sulforhodamine B assay; details: read-out: Activity
HOP-92 [11] = assay: Growth inhibition of human HOP92 cells assessed as cell growth at 10^-7 M by sulforhodamine B assay; details: read-out: Activity
HL-60(TB) = assay: Growth inhibition of human HL-60(TB) cells assessed as growth inhibition at 10 uM by sulforhodamine B assay
SF-268 = assay: Growth inhibition of human SF268 cells assessed as cell growth at 10 uM by sulforhodamine B assay; details: read-out: Activity
CCRF-CEM [12] = assay: Growth inhibition of human CCRF-CEM cells assessed as cell growth at 10 uM by sulforhodamine B assay; details: read-out: Activity
[13] = Growth inhibition of human EKVX cells assessed as growth inhibition at 10 uM by sulforhodamine B assay; details: read-out: GI
DU-145 [14] = assay: Growth inhibition of human DU145 cells assessed as cell growth at 10 uM by sulforhodamine B assay; details: read-out: Activity
CAKI-1 [15] = assay: Growth inhibition of human CAKI-1 cells assessed as cell growth at 10^-8 M by sulforhodamine B assay; details: read-out: Activity
SR [16] = assay: Growth inhibition of human SR cells assessed as cell growth at 10^-6 M by sulforhodamine B assay; details: read-out: Activity
NCI-H460 = assay: Growth inhibition of human NCI-H460 cells assessed as cell growth at 10 uM by sulforhodamine B assay; details: read-out: Activity
[17] = Growth inhibition of human Hs 578T cells assessed as cell growth at 10^-8 M by sulforhodamine B assay; details: read-out: Activity
COLO 205 = assay: Growth inhibition of human COLO205 cells by sulforhodamine B assay
TK-10 [18] = assay: Growth inhibition of human TK10 cells assessed as growth inhibition at 10 uM by sulforhodamine B assay; details: read-out: GI
[19] = Growth inhibition of human Hs 578T cells assessed as growth inhibition at 10 uM by sulforhodamine B assay; details: read-out: GI
MCF7 = assay: Growth inhibition of human MCF7 cells assessed as cell growth at 10^-8 M by sulforhodamine B assay; details: read-out: Activity
A549 = assay: Growth inhibition of human A549/ATCC cells assessed as cell growth at 10^-8 M by sulforhodamine B assay; details: read-out: Activity
SR [20] = assay: Growth inhibition of human SR cells assessed as cell growth at 10^-8 M by sulforhodamine B assay; details: read-out: Activity
M14 = assay: Growth inhibition of human M14 cells assessed as cell growth at 10 uM by sulforhodamine B assay; details: read-out: Activity
MOLT-4 = assay: Growth inhibition of human MOLT4 cells assessed as cell growth at 10 uM by sulforhodamine B assay; details: read-out: Activity
NCI-H23 [21] = assay: Growth inhibition of human NCI-H23 cells assessed as cell growth at 10^-7 M by sulforhodamine B assay; details: read-out: Activity
K562 = assay: Growth inhibition of human K562 cells assessed as cell growth at 10^-8 M by sulforhodamine B assay; details: read-out: Activity
NCI-H23 [22] = assay: Growth inhibition of human NCI-H23 cells assessed as growth inhibition at 10 uM by sulforhodamine B assay; details: read-out: GI
TK-10 [23] = assay: Growth inhibition of human TK10 cells assessed as cell growth at 10^-8 M by sulforhodamine B assay; details: read-out: Activity
SF-539 [24] = assay: Growth inhibition of human SF539 cells assessed as cell growth at 10^-8 M by sulforhodamine B assay; details: read-out: Activity
RXF 393 [25] = assay: Growth inhibition of human RXF393 cells assessed as cell growth at 10^-6 M by sulforhodamine B assay; details: read-out: Activity
[26] = read-out: LC50 (the source's name)
[27] = read-out: pLC50 (the source's name) (converted)

SMILES: C/C=C(/C)C(=O)O[C@@H]1CC(C)(C)C[C@H]2C3=CC[C@@H]4[C@@]5(C)CCC(=O)C(C)(C)[C@@H]5CC[C@@]4(C)[C@]3(C)CC[C@@]12C(=O)O [LANTADENE A]
- inhibition of growth at 10 µM (CCRF-CEM [1]): 56.4%
- growth at 0.1 µM (ACHN): 107%
- inhibition of growth at 10 µM (HOP-92 [2]): 56.3%
- growth at 10 µM (SNB-19): 59.4%
- growth at 1 µM (DU-145 [3]): 102%
- inhibition of growth at 10 µM (SW-620): 31.3%
- growth at 1 µM (U-251): 90%
- growth at 0.01 µM (UO-31): 96%
- GI50 (SK-MEL-2 [4]; read-out: GI50): 3.07 µM
- CC50 (SK-MEL-2 [4]; [26]): > 100 µM
- TGI (SK-MEL-2 [4]; read-out: TGI): 8.07 µM
- GI50 (SK-MEL-2 [4]; read-out: pGI50 (converted)): 3.09 µM
- CC50 (SK-MEL-2 [4]; [27]): > 100 µM
- TGI (SK-MEL-2 [4]; read-out: pTGI (converted)): 8.13 µM
- growth at 100 µM (TK-10 [5]): 6%
- growth at 100 µM (SF-539 [6]): 17%
- inhibition of growth at 10 µM (IGROV-1): 28.4%
- inhibition of growth at 10 µM (A498): 23.8%
- growth at 10 µM (OVCAR-5): 92.4%
- growth at 100 µM (NCI-H23 [7]): 12%
- inhibition of growth at 10 µM (HT-29): 32.1%
- inhibition of growth at 10 µM (SK-OV-3): < 10%
- inhibition of growth at 10 µM (RXF 393 [8]): 11.5%
- growth at 10 µM (CAKI-1 [9]): 48.4%
- growth at 100 µM (KM12): 20%
- growth at 100 µM (SK-MEL-5): -46%
- GI50 (RPMI-8226; read-out: GI50): 2 µM
- CC50 (RPMI-8226; [26]): > 100 µM
- TGI (RPMI-8226; read-out: TGI): > 100 µM
- GI50 (RPMI-8226; read-out: pGI50 (converted)): 2 µM
- CC50 (RPMI-8226; [27]): > 100 µM
- TGI (RPMI-8226; read-out: pTGI (converted)): > 100 µM
- growth at 10 µM (SK-MEL-2 [10]): 77.1%
- growth at 0.1 µM (HOP-92 [11]): 71%
- growth inhibition (GI) (HL-60(TB)): Active
- growth at 10 µM (SF-268): 74.1%
- growth at 10 µM (CCRF-CEM [12]): 43.6%
- inhibition of growth at 10 µM [13]: 50.7%
- growth at 10 µM (DU-145 [14]): 82.6%
- growth at 0.01 µM (CAKI-1 [15]): 96%
- growth at 1 µM (SR [16]): 80%
- growth at 10 µM (NCI-H460): 51.5%
- growth at 0.01 µM [17]: 97%
- GI50 (COLO 205; read-out: GI50): 2.64 µM
- LC50 (COLO 205; read-out: LC50): 89.7 µM
- TGI (COLO 205; read-out: TGI): 6.8 µM
- GI50 (COLO 205; read-out: pGI50 (converted)): 2.63 µM
- LC50 (COLO 205; read-out: pLC50 (converted)): 89.1 µM
- TGI (COLO 205; read-out: pTGI (converted)): 6.76 µM
- inhibition of growth at 10 µM (TK-10 [18]): 16.7%
- inhibition of growth at 10 µM [19]: 21.2%
- growth at 0.01 µM (MCF7): 94%
- growth at 0.01 µM (A549): 94%
- growth at 0.01 µM (SR [20]): 84%
- growth at 10 µM (M14): 63.8%
- growth at 10 µM (MOLT-4): 43.3%
- growth at 0.1 µM (NCI-H23 [21]): 99%
- growth at 0.01 µM (K562): 110%
- inhibition of growth at 10 µM (NCI-H23 [22]): 42%
- growth at 0.01 µM (TK-10 [23]): 99%
- growth at 0.01 µM (SF-539 [24]): 102%
- growth at 1 µM (RXF 393 [25]): 81%
